Measurements as given in the PolyMetriX glass transition set.
± gives the standard deviation of the reports.

With `*CCCCCCOC(=O)OCCCCCCOC(=O)OCCCCCCN1C(=O)c2ccc(C(=O)c3ccc4c(c3)C(=O)N(*)C4=O)cc2C1=O` (repeat unit) as the compound, how does the glass transition temperature read?
The glass transition temperature was 40.00 °C.

With `*c1ccc(NC2CC(=O)N(c3ccc(-c4sc(-c5ccc(N6C(=O)CC(Nc7ccc(-c8nc(-c9ccc(/C=C/c%10ccc([N+](=O)[O-])cc%10)s9)[nH]c8*)cc7)C6=O)cc5)c(-c5ccccc5)c4-c4ccccc4)cc3)C2=O)cc1` (repeat unit) as the compound, how does the glass transition temperature read?
The glass transition temperature was 304.00 °C.

With `*O[Si](C)(CCC(F)(F)F)CCC(F)(F)C(F)(F)C(F)(F)C(F)(F)C(F)(F)C(F)(F)C(F)(F)C(F)(F)CC[Si](*)(C)CCC(F)(F)F` (repeat unit) as the compound, how does the glass transition temperature read?
Its glass transition temperature is -28.00 °C.

For `*CCCC(CC)CCNC(=O)c1ccc(C(=O)N*)cc1` (repeat unit), which glass transition temperature is on record?
The glass transition temperature was 135.00 °C.

For `*c1cc(C(=O)OCC(F)(F)C(F)(F)C(F)(F)F)c(*)s1` (repeat unit), which glass transition temperature is on record?
Its glass transition temperature is 129.00 °C.

Which glass transition temperature does the source give for `*CC(*)[Si](C)(C)Cc1ccccc1` (repeat unit) here?
Its glass transition temperature is -24.00 °C.

Which glass transition temperature does the source give for `*CC(*)c1ccc(COC)cc1` (repeat unit) [Poly(p-methoxymethyl styrene)] here?
Its glass transition temperature is 77 ± 0.6 °C.

With `*CC(O)CN(*)c1ccc(/N=N/c2ccc([N+](=O)[O-])cc2C)cc1` (repeat unit) as the compound, how does the glass transition temperature read?
Its glass transition temperature is 156.00 °C.

For `*CCCCCCCCN(C)c1ccc(C(=O)c2ccc(N(*)C)cc2)cc1` (repeat unit), which glass transition temperature is on record?
The glass transition temperature was 50.00 °C.

Which glass transition temperature does the source give for `*C(=O)Nc1cccc(S(=O)(=O)c2cccc(NC(=O)c3ccc4c(c3)C(=O)N(c3ccc(-c5sc(-c6ccc(N7C(=O)c8ccc(*)cc8C7=O)cc6)c(-c6ccccc6)c5-c5ccccc5)cc3)C4=O)c2)c1` (repeat unit) here?
The glass transition temperature was 320.00 °C.

Which glass transition temperature does the source give for `*CC(O)COc1ccc(C(C)(C)c2ccc(OCC(O)COc3c(C)cc(S(=O)(=O)c4cc(C)c(O*)c(C)c4)cc3C)cc2)cc1` (repeat unit) here?
The glass transition temperature was 137.50 °C.

With `*COC(=O)OC1C(*)OC2OC(C)(C)OC21` (repeat unit) as the compound, how does the glass transition temperature read?
Its glass transition temperature is 128.00 °C.

Which glass transition temperature does the source give for `*CC(COCOCC(C)([N+](=O)[O-])[N+](=O)[O-])O*` (repeat unit) here?
Its glass transition temperature is -15.00 °C.

With `*/C=C/C(C*)COCC(=O)OCCCCCCCCOc1ccc(/C=C/c2ccc([N+](=O)[O-])cc2)cc1` (repeat unit) as the compound, how does the glass transition temperature read?
The glass transition temperature was 23.00 °C.

With `*c1ccc([Si](C)(C)[Si](*)(C)C)s1` (repeat unit) as the compound, how does the glass transition temperature read?
Its glass transition temperature is 15.00 °C.

For `*c1ccc(N(c2ccc(C#N)cc2)c2ccc(N3C(=O)c4ccc(Oc5ccc(C6(c7ccc(Oc8ccc9c(c8)C(=O)N(*)C9=O)cc7)CCCCC6)cc5)cc4C3=O)cc2)cc1` (repeat unit), which glass transition temperature is on record?
The glass transition temperature was 243.00 °C.

For `*Oc1ccc(CC(NC(=O)CCc2ccc(OC(=O)CCCC(*)=O)cc2)C(=O)OCCCC)cc1` (repeat unit), which glass transition temperature is on record?
Its glass transition temperature is 56.00 °C.

With `*Nc1ccc(C(=O)c2c(C)c(C)c(C(=O)c3ccc(NC(=O)c4ccc(C(*)=O)cc4)cc3)c(C)c2C)cc1` (repeat unit) as the compound, how does the glass transition temperature read?
The glass transition temperature was 345.00 °C.

With `*c1ccc(Oc2cccc(N3C(=O)c4ccc([Si](C)(C)O[Si](C)(C)c5ccc6c(c5)C(=O)N(c5cccc(Oc7ccc(-c8nnc(*)o8)cc7)c5)C6=O)cc4C3=O)c2)cc1` (repeat unit) as the compound, how does the glass transition temperature read?
The glass transition temperature was 165.00 °C.

With `*O[Si](C)(C)c1cccc(C(F)(F)C(F)(F)c2cccc([Si](*)(C)C)c2)c1` (repeat unit) as the compound, how does the glass transition temperature read?
Its glass transition temperature is -2.00 °C.

For `*C(=O)Nc1ccc(Sc2ccc(NC(=O)c3ccc4c(c3)C(=O)N(c3ccc(Oc5ccc(C6(c7ccc(Oc8ccc(N9C(=O)c%10ccc(*)cc%10C9=O)cc8)cc7)NC(=O)c7ccccc76)cc5)cc3)C4=O)cc2)cc1` (repeat unit), which glass transition temperature is on record?
The glass transition temperature was 312.00 °C.

For `*OC1C(CO)OC(*)C(N)C1O` (repeat unit), which glass transition temperature is on record?
The glass transition temperature was 194.00 °C.

With `*C(=O)c1ccc2c(c1)C(=O)N(c1ccc(OCCOCCOc3ccc(N4C(=O)c5ccc(*)cc5C4=O)cc3)cc1)C2=O` (repeat unit) as the compound, how does the glass transition temperature read?
Its glass transition temperature is 235.00 °C.

For `*Oc1ccc(Sc2ccc(Oc3ccc(-c4ccc(-c5ccc(*)c(C(F)(F)F)c5)cc4)cc3C(F)(F)F)cc2)cc1` (repeat unit), which glass transition temperature is on record?
The glass transition temperature was 164.50 °C.

For `*c1ccc(Cc2ccc(N3C(=O)c4ccc(Oc5ccc(Oc6ccc7c(c6)C(=O)N(*)C7=O)cc5)cc4C3=O)c(OC)c2)cc1OC` (repeat unit), which glass transition temperature is on record?
Its glass transition temperature is 269.00 °C.

For `*Nc1ccc(N[Se]*)cc1` (repeat unit), which glass transition temperature is on record?
The glass transition temperature was 55.00 °C.

Which glass transition temperature does the source give for `*c1ccc2oc(-c3ccc(Oc4ccc(-c5nc6cc(C(*)(C(F)(F)F)C(F)(F)F)ccc6o5)cc4)cc3)nc2c1` (repeat unit) here?
The glass transition temperature was 303.00 °C.

For `*CC(*)(C)C(=O)OCCCCCC(=O)Oc1ccc(OC(=O)c2ccc(OCCCCCC)cc2)cc1` (repeat unit), which glass transition temperature is on record?
Its glass transition temperature is 44.00 °C.

For `*Oc1ccc(NC(=O)c2ccc(C(=O)Nc3ccc(Oc4ccc(C5(c6ccc(*)cc6)CC6CCC5C6)cc4)cc3)cc2)cc1` (repeat unit), which glass transition temperature is on record?
The glass transition temperature was 281.00 °C.

For `*Oc1ccc(Oc2ccc(C(=O)c3ccccc3)c(-c3cc(*)ccc3C(=O)c3ccccc3)c2)cc1` (repeat unit), which glass transition temperature is on record?
Its glass transition temperature is 156.00 °C.

With `*CCC(C)(C)C(*)(C)C` (repeat unit) as the compound, how does the glass transition temperature read?
The glass transition temperature was 87.00 °C.

For `*CCCCCOc1cccc(NC(=O)c2ccc(C(=O)Nc3cccc(O*)c3)cc2)c1` (repeat unit), which glass transition temperature is on record?
The glass transition temperature was 135.00 °C.

With `*CC(*)CO` (repeat unit) as the compound, how does the glass transition temperature read?
Its glass transition temperature is 36.00 °C.

With `*Nc1ccccc1CCc1ccc(NC(=O)NCCCCCCNC(*)=O)cc1` (repeat unit) as the compound, how does the glass transition temperature read?
Its glass transition temperature is 150.00 °C.

For `*CC(O)COc1ccc(C(C)(C)c2ccc(OCC(O)COc3cccc(NC(=O)CCCCCCC(=O)Nc4cccc(O*)c4)c3)cc2)cc1` (repeat unit), which glass transition temperature is on record?
Its glass transition temperature is 92.00 °C.

Which glass transition temperature does the source give for `*CCc1ccc(CCNC(=O)CCCCCCCCCCCCCCCCC(=O)N*)cc1` (repeat unit) here?
The glass transition temperature was 75.00 °C.

For `*c1cccc(C(=O)c2ccc(Oc3ccc(N4C(=O)c5ccc(Oc6ccc7c(c6)C(=O)N(*)C7=O)cc5C4=O)cc3)cc2)c1` (repeat unit), which glass transition temperature is on record?
The glass transition temperature was 232.00 °C.

With `*CC(*)c1ccc(C(=O)OCCCCCC)cc1` (repeat unit) as the compound, how does the glass transition temperature read?
The glass transition temperature was 66.00 °C.

Which glass transition temperature does the source give for `*C(=O)c1ccc2c(c1)C(=O)N(c1ccc(C3(c4ccc(N5C(=O)c6ccc(*)cc6C5=O)cc4)c4ccccc4-c4ccccc43)cc1)C2=O` (repeat unit) here?
The glass transition temperature was 376.00 °C.

With `*C(=O)c1ccc2c(c1)C(=O)N(c1ccc(N3C(=O)c4ccc(*)cc4C3=O)c(S(=O)(=O)[O][Na])c1)C2=O` (repeat unit) as the compound, how does the glass transition temperature read?
The glass transition temperature was 214.00 °C.

For `*c1ccc(Oc2ccc(N3C(=O)c4ccc(Oc5ccc(C(C)(C)c6ccc(Oc7ccc8c(c7)C(=O)N(*)C8=O)cc6)cc5)cc4C3=O)cc2)cc1` (repeat unit), which glass transition temperature is on record?
Its glass transition temperature is 215.00 °C.

For `*Oc1cccc(Oc2cccc(NC(=O)c3cc(Oc4ccc(C(=O)O)c(C(=O)Nc5cccc(*)c5)c4)ccc3C(=O)O)c2)c1` (repeat unit), which glass transition temperature is on record?
Its glass transition temperature is 176.40 °C.

For `*CCN(CCOC(=O)c1ccc(C(=O)O*)cc1)c1ccc(/N=N/c2ccc(-c3nc4ccc([N+](=O)[O-])cc4n3CC)cc2)cc1` (repeat unit), which glass transition temperature is on record?
The glass transition temperature was 149.00 °C.

For `*Oc1ccc(NC(=O)c2ccc3cc(C(=O)Nc4ccc(Oc5ccc(C6(c7ccc(*)cc7)C7CC8CC(C7)CC6C8)cc5)cc4)ccc3c2)cc1` (repeat unit), which glass transition temperature is on record?
The glass transition temperature was 266.00 °C.

Which glass transition temperature does the source give for `*CC(*)c1ccc(C(=O)OCC(C)C)cc1` (repeat unit) here?
The glass transition temperature was 90.00 °C.

With `*NC(CCC(=O)OCc1ccc(C(F)(F)F)cc1)C(*)=O` (repeat unit) as the compound, how does the glass transition temperature read?
The glass transition temperature was 26.57 °C.

With `*c1ccc2c(c1)C(=O)N(c1ccc(-c3cc(-c4ccc(OCCCC#N)cc4)cc(-c4ccc(N5C(=O)c6ccc(C(*)(C(F)(F)F)C(F)(F)F)cc6C5=O)cc4)n3)cc1)C2=O` (repeat unit) as the compound, how does the glass transition temperature read?
Its glass transition temperature is 339.00 °C.

For `*c1ccc(Sc2ccc(-c3nc4ccc(-c5ccc6nc(*)c(-c7ccccc7)nc6c5)cc4nc3-c3ccccc3)cc2)cc1` (repeat unit), which glass transition temperature is on record?
Its glass transition temperature is 288.00 °C.

For `*ON(C(F)(F)F)C(F)(Br)C(*)(F)F` (repeat unit), which glass transition temperature is on record?
Its glass transition temperature is 3.00 °C.

With `*c1ccc(Cc2ccc(N3C(=O)C(C)C(SCCOCCSC4C(=O)N(c5ccc(Cc6ccc(N7C(=O)CC(C)(SCCOCCSC8(C)CC(=O)N(*)C8=O)C7=O)cc6)cc5)C(=O)C4C)C3=O)cc2)cc1` (repeat unit) as the compound, how does the glass transition temperature read?
The glass transition temperature was 105.00 °C.

For `*Oc1ccc(-c2ccc(Oc3ccc(C(=O)c4c(C(=O)c5ccc(*)cc5)c(-c5ccc(F)cc5)c(-c5ccc(F)cc5)c(-c5ccc(F)cc5)c4-c4ccc(F)cc4)cc3)cc2)cc1` (repeat unit), which glass transition temperature is on record?
The glass transition temperature was 275.00 °C.

Which glass transition temperature does the source give for `*CC(*)c1ccc(C(C)(O)CCC)cc1` (repeat unit) here?
Its glass transition temperature is 135.00 °C.

For `*CC(*)(C)C(=O)OCc1ccc2c(c1)c1ccccc1n2CCCCCCCCCCCCCC` (repeat unit), which glass transition temperature is on record?
Its glass transition temperature is 26.00 °C.

With `*CC(*)(C)C(=O)OCCC(C)CC(C)(C)C` (repeat unit) as the compound, how does the glass transition temperature read?
The glass transition temperature was 1.00 °C.

For `*Oc1ccc(CC(NC(=O)Cc2ccc(OC(=O)CCCCCCCCC(*)=O)cc2)C(=O)OCCCCCC)cc1` (repeat unit), which glass transition temperature is on record?
Its glass transition temperature is 23.00 °C.

For `*Oc1ccc(OC(=O)c2ccc(C(*)=O)cc2)cc1C1CCCCC1` (repeat unit), which glass transition temperature is on record?
The glass transition temperature was 206.00 °C.

Which glass transition temperature does the source give for `*C(=O)OCCCCCCCCCCOC(=O)c1ccc(N2C(=O)c3ccc(*)cc3C2=O)cc1` (repeat unit) here?
The glass transition temperature was 58.00 °C.

Which glass transition temperature does the source give for `*CC(*)C(=O)OCCCC` (repeat unit) [Poly(tert-butyl acrylate)] here?
The glass transition temperature was -51.58 ± 45 °C.

With `*CC(CCCCCCCCCC)C(CCCCCCCCCC)COC(=O)c1ccc(C(=O)O*)cc1` (repeat unit) as the compound, how does the glass transition temperature read?
The glass transition temperature was -38.00 °C.

Which glass transition temperature does the source give for `*c1ccc2c(c1)C(=O)N(c1cccc(C(C)(C)c3ccc(N4C(=O)c5ccc(C(*)(C(F)(F)F)C(F)(F)F)cc5C4=O)cc3)c1)C2=O` (repeat unit) here?
The glass transition temperature was 260.00 °C.

Which glass transition temperature does the source give for `*Oc1c(C)cc(-c2cc(C)c(Oc3ccc(C(=O)c4ccc5cc(C(=O)c6ccc(*)cc6)ccc5c4)cc3)c(C)c2)cc1C` (repeat unit) here?
Its glass transition temperature is 270.00 °C.

With `*c1cccc(OCCCCCCCCCOc2cccc(N3C(=O)c4ccc(-c5ccc6c(c5)C(=O)N(*)C6=O)cc4C3=O)c2)c1` (repeat unit) as the compound, how does the glass transition temperature read?
Its glass transition temperature is 132.00 °C.

With `*c1c(C)cc(Cc2cc(C)c(N3C(=O)c4ccc(Oc5cc6ccccc6cc5Oc5ccc6c(c5)C(=O)N(*)C6=O)cc4C3=O)c(C)c2)cc1C` (repeat unit) as the compound, how does the glass transition temperature read?
Its glass transition temperature is 265.00 °C.
